Data published in ChEMBL document CHEMBL5036351, “Discovery of novel, potent and orally efficacious inhibitor of neutral amino acid transporter B0AT1 (SLC6A19)” (Bioorg Med Chem Lett, 2021).
pIC50: −log10 of the molar value. Each block holds one compound with its values, some of them ahead of it.

Tests used:
[1] = Inhibition of B0AT1 (unknown origin) by radiolabled uptake assay; design: species or system Homo sapiens
[2] = Inhibition of B0AT1 (unknown origin) by FLIPR assay; design: species or system Homo sapiens
[3] = Tmax in C57BL/6 mouse at 3 mg/kg, po; assay type: ADME, organism-based; conditions: in vivo
[4] = Cmax in C57BL/6 mouse at 3 mg/kg, po; assay type: ADME, organism-based; design: route oral, dose 3 mg/kg; conditions: in vivo
[5] = AUC (0 to t) in C57BL/6 mouse at 3 mg/kg, po; assay type: ADME, organism-based; design: dose 3 mg/kg; conditions: in vivo
[6] = Half life in C57BL/6 mouse at 3 mg/kg, po; assay type: ADME, organism-based; conditions: in vivo
[7] = MRT in C57BL/6 mouse at 3 mg/kg, po; assay type: ADME, organism-based; conditions: in vivo
[8] = Initial plasma concentration in C57BL/6 mouse at 1 mg/kg, iv; assay type: ADME, organism-based
[9] = AUC (0 to t) in C57BL/6 mouse at 1 mg/kg, iv; assay type: ADME, organism-based; design: dose 1 mg/kg; conditions: in vivo
[10] = Volume of distribution at steady state in C57BL/6 mouse at 1 mg/kg, iv; assay type: ADME, organism-based; conditions: in vivo, read-out: Vdss
[11] = Clearance in C57BL/6 mouse at 1 mg/kg, iv; assay type: ADME, organism-based; conditions: in vivo
[12] = Half life in C57BL/6 mouse at 1 mg/kg, iv; assay type: ADME, organism-based; conditions: in vivo
[13] = MRT in C57BL/6 mouse at 1 mg/kg, iv; assay type: ADME, organism-based; conditions: in vivo
[14] = Bioavailability in C57BL/6 mouse at 1 mg/kg, iv; assay type: ADME, organism-based; conditions: in vivo
Mus musculus [15] = experiment: Anti-obesity activity in high fat diet induced C57BL/6J mouse model assessed as change in body weight at 25 mg/kg, po dosed once daily for 28 days; assay type: functional; conditions: time 28 day
Mus musculus [16] = experiment: Anti-obesity activity in C57BL/6J mouse model of diet-induced obesity assessed as reduction in area under curve at 25 mg/kg, po dosed once daily for 28 days by insulin tolerance test; assay type: functional; design: scale not given: the % may be the effect or the level left; conditions: time 28 day
[17] = Metabolic stability in mouse liver microsomes; assay type: ADME, Microsome
[18] = Metabolic stability in dog liver microsomes; assay type: ADME, Canis lupus familiaris, Microsome
[19] = Metabolic stability in rat liver microsomes; assay type: ADME, Microsome
[20] = Metabolic stability in human liver microsomes; assay type: ADME, Microsome
Cytochrome P450 2C8 = biological target: T1, Cytochrome P450 2C8 (Homo sapiens, UniProt P10632); experiment: Inhibition of CYP2C8 (unknown origin); assay type: ADME
T1 sequence (P10632 whole entry): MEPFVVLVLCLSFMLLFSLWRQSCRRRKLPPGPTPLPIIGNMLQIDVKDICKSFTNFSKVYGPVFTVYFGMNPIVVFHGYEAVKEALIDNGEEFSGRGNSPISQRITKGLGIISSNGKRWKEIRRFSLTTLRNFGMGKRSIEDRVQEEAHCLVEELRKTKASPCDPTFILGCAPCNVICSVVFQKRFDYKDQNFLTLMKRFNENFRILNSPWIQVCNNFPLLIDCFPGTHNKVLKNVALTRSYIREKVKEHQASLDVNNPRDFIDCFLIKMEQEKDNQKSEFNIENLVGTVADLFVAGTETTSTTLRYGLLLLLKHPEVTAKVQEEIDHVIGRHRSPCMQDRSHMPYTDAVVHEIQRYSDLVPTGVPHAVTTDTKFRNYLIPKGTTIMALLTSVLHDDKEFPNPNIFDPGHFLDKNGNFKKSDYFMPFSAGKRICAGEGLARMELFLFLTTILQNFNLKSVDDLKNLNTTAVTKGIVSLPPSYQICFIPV

Cytochrome P450 2C9 = Cytochrome P450 2C9 (Homo sapiens, UniProt P11712); experiment: Inhibition of CYP2C9 (unknown origin); assay type: ADME
Cytochrome P450 2C19 = Cytochrome P450 2C19 (Homo sapiens, UniProt P33261); experiment: Inhibition of CYP2C19 (unknown origin); assay type: ADME
Cytochrome P450 3A4 = Cytochrome P450 3A4 (Homo sapiens, UniProt P08684); experiment: Inhibition of CYP3A4 (unknown origin); assay type: ADME
Chain of Cytochrome P450 3A4 (P08684 whole entry): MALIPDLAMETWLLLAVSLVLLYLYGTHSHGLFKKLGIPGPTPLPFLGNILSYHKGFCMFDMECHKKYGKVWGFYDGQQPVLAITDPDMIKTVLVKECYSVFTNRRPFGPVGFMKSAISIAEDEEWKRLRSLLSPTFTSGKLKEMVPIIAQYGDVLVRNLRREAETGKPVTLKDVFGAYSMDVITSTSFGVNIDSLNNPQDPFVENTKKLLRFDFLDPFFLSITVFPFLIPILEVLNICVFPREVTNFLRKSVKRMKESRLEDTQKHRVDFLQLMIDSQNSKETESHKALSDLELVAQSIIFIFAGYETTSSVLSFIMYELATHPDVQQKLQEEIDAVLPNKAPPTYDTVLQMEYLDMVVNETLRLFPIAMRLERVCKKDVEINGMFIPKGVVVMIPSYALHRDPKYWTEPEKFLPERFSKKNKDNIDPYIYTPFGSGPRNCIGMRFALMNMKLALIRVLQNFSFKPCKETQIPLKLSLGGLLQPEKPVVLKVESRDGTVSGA

Chain of Cytochrome P450 2C9 (P11712 whole entry): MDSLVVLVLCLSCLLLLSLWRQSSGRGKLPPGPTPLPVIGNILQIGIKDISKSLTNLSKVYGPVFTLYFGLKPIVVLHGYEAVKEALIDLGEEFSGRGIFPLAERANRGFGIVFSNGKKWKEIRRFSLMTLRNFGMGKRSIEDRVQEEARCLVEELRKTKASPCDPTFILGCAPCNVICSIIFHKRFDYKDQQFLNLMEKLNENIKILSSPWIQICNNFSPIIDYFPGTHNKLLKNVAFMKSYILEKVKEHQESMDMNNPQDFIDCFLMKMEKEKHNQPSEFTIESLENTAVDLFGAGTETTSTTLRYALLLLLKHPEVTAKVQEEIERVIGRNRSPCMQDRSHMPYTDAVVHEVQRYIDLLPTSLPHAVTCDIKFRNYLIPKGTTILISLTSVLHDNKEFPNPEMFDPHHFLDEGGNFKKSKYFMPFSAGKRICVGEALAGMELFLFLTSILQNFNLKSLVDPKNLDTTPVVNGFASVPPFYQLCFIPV
Chain of Cytochrome P450 2C19 (P33261 whole entry): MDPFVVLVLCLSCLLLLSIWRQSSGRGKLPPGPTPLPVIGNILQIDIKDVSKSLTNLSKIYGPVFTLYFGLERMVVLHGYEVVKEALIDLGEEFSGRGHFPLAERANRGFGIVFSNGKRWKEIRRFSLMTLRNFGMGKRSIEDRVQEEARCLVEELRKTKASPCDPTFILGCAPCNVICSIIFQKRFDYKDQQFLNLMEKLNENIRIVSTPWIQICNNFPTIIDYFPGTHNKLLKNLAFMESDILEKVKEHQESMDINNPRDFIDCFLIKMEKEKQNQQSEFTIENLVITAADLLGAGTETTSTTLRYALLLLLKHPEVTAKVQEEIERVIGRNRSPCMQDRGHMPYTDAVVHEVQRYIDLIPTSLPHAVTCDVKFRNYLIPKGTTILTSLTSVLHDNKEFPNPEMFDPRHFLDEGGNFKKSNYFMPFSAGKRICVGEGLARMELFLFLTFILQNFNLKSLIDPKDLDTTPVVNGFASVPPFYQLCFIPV

pIC50 [1]: < 5.00
SMILES: O=S(=O)(Nc1ccc(S(=O)(=O)C(F)F)cc1Oc1ccccc1)c1ccccc1

pIC50 [1]: 6.72
SMILES: O=S(=O)(Nc1ccc(S(=O)(=O)C(F)(F)F)cc1Oc1ccccc1)c1ccccc1

pIC50 [1]: < 5.00
SMILES: CS(=O)(=O)c1ccc(NS(=O)(=O)c2ccccc2)c(Oc2ccccc2)c1

pIC50 [1]: 6.36
SMILES: Cc1cc(C)cc(Oc2cc(S(=O)(=O)C(F)(F)F)ccc2NS(=O)(=O)c2ccccc2)c1

pIC50 [1]: < 5.00
SMILES: N#Cc1ccc(NS(=O)(=O)c2ccccc2)c(Oc2ccccc2)c1

pIC50 [1]: 4.80
pIC50 [2]: 4.70
SMILES: COc1ccc(C(CCCN2CCOCC2)c2ccc(C)cc2)cc1 (configuration not stated)

pIC50 [1]: < 6.00
SMILES: O=S(=O)(Nc1ccc(S(=O)(=O)C(F)(F)F)cc1Oc1ccc(Cl)cc1)c1ccccc1

pIC50 [1]: 4.15
pIC50 [2]: 4.36
SMILES: CN1C2CCC1CC(OC(c1ccccc1)c1ccccc1)C2 (configuration not stated)

pIC50 [1]: 6.22
SMILES: COc1ccc(Oc2cc(S(=O)(=O)C(F)(F)F)ccc2NS(=O)(=O)c2ccccc2)cc1

pIC50 [1]: 6.49
SMILES: O=S(=O)(Nc1ccc(S(=O)(=O)C(F)(F)F)cc1C(O)c1ccccc1)c1ccccc1 (configuration not stated)

pIC50 [1]: 6.00
SMILES: O=S(=O)(Nc1ccc(S(=O)(=O)C(F)(F)F)cc1OCc1ccccc1)c1ccccc1

pIC50 [1]: 6.16
SMILES: O=S(=O)(Nc1ccc(S(=O)(=O)C(F)(F)F)cc1Nc1ccccc1)c1ccccc1

pIC50 [1]: 4.64
SMILES: CS(=O)(=O)Nc1ccc([N+](=O)[O-])cc1Oc1ccccc1 [NIMESULIDE]

pIC50 [1]: < 6.00
SMILES: O=S(=O)(Nc1ccc(S(=O)(=O)C(F)(F)F)cc1Oc1cccnc1)c1ccccc1

pIC50 [1]: 6.43
SMILES: O=S(=O)(Nc1ccc(S(=O)(=O)C(F)(F)F)cc1-c1ccccc1)c1ccccc1

pIC50 [1]: < 6.00
SMILES: CN(C)c1cccc(Oc2cc(S(=O)(=O)C(F)(F)F)ccc2NS(=O)(=O)c2ccccc2)c1

pIC50 [1]: 7.00
SMILES: COc1cc(F)cc(Oc2cc(S(=O)(=O)C(F)(F)F)ccc2NS(=O)(=O)c2ccccc2)c1

pIC50 [1]: 5.41
pIC50 [2]: 5.72
SMILES: Cc1cc(C(=O)Nc2ccc(Cl)cc2C(F)(F)F)no1

pIC50 [1]: < 6.00
SMILES: Cc1ccc(Oc2cc(S(=O)(=O)C(F)(F)F)ccc2NS(=O)(=O)c2ccccc2)cc1

pIC50 [1]: 7.46
Tmax [3]: 2 h
Cmax [4]: 3770 ng/mL
AUC(0-t) [5]: 31300 ng·h/mL
half-life [6]: 5.39 h
MRT [7]: 6.73 h
C0 [8]: 6680 ng/mL
AUC(0-t) [9]: 16200 ng·h/mL
Vd [10]: 0.35 L/kg
clearance [11]: 1.01 mL/min/kg
half-life [12]: 4.05 h
MRT [13]: 5.74 h
bioavailability [14]: 64%
Stability [17]: Stable
Stability [18]: Stable
Stability [19]: Stable
Stability [20]: Stable
inhibition (INH) (Cytochrome P450 2C8): Active
inhibition (INH) (Cytochrome P450 2C9): Active
inhibition (INH) (Cytochrome P450 2C19): Active
inhibition (INH) (Cytochrome P450 3A4): Active
SMILES: O=S(=O)(Nc1ccc(S(=O)(=O)C(F)(F)F)cc1Oc1cc(F)cc(F)c1)c1ccccc1
Activity (Mus musculus [15]): -8.9%
Activity (Mus musculus [16]): 22.9%

pIC50 [1]: < 6.00
SMILES: N#Cc1ccc(Oc2cc(S(=O)(=O)C(F)(F)F)ccc2NS(=O)(=O)c2ccccc2)cc1

pIC50 [1]: < 6.00
SMILES: O=C(Nc1ccccc1)c1cc(S(=O)(=O)C(F)(F)F)ccc1NS(=O)(=O)c1ccccc1

pIC50 [1]: < 5.00
SMILES: O=C(O)c1ccc(NS(=O)(=O)c2ccccc2)c(Oc2ccccc2)c1

pIC50 [1]: < 5.00
SMILES: O=S(=O)(Nc1ccc(-c2nn[nH]n2)cc1Oc1ccccc1)c1ccccc1

pIC50 [1]: 6.28
SMILES: O=S(=O)(Nc1ccc(S(=O)(=O)C(F)(F)F)cc1Oc1ccc(C(F)(F)F)cc1)c1ccccc1

pIC50 [1]: < 5.00
SMILES: O=C(NO)c1ccc(NS(=O)(=O)c2ccccc2)c(Oc2ccccc2)c1

pIC50 [1]: 6.70
SMILES: O=[N+]([O-])c1ccc(NS(=O)(=O)c2ccccc2)c(Oc2ccccc2)c1

Further lines, the compound ahead of its results:

SMILES: O=S(=O)(Nc1ccc(S(=O)(=O)C(F)(F)F)cc1Sc1ccccc1)c1ccccc1
pIC50 [1]: 6.10

SMILES: CCNC(=O)/C=C/c1cccc(Br)c1 [CINROMIDE]
pIC50 [1]: 6.43
pIC50 [2]: 6.55

SMILES: O=S(=O)(Nc1ccc(S(=O)(=O)C(F)(F)F)cc1OC1CCCCC1)c1ccccc1
pIC50 [1]: < 6.00

SMILES: COC(=O)c1ccc(NS(=O)(=O)c2ccccc2)c(Oc2ccccc2)c1
pIC50 [1]: < 5.00

SMILES: O=C(c1ccccc1)c1cc(S(=O)(=O)C(F)(F)F)ccc1NS(=O)(=O)c1ccccc1
pIC50 [1]: 6.22

SMILES: O=S(=O)(Nc1ccc(S(=O)(=O)C(F)(F)F)cc1S(=O)(=O)c1ccccc1)c1ccccc1
pIC50 [1]: < 6.00

SMILES: O=S(=O)(Nc1ccc(C(F)(F)F)cc1Oc1ccccc1)c1ccccc1
pIC50 [1]: < 5.00

SMILES: COc1ccc(Oc2cc(S(=O)(=O)C(F)(F)F)ccc2NS(=O)(=O)c2ccccc2)cc1OC
pIC50 [1]: < 6.00

SMILES: O=S(=O)(Nc1ccc(F)cc1Oc1ccccc1)c1ccccc1
pIC50 [1]: < 5.00

SMILES: N=C(NO)c1ccc(NS(=O)(=O)c2ccccc2)c(Oc2ccccc2)c1
pIC50 [1]: < 5.00

SMILES: N=C(N)c1ccc(NS(=O)(=O)c2ccccc2)c(Oc2ccccc2)c1
pIC50 [1]: < 5.00

SMILES: O=S(=O)(Nc1ccc(S(=O)(=O)C(F)(F)F)cc1Oc1ccc(Cl)c(Cl)c1)c1ccccc1
pIC50 [1]: 6.00

SMILES: NC(=O)c1ccc(NS(=O)(=O)c2ccccc2)c(Oc2ccccc2)c1
pIC50 [1]: < 5.00

SMILES: O=S(=O)(Nc1ccc(S(=O)(=O)C(F)(F)F)cc1Oc1cccc(F)c1)c1ccccc1
pIC50 [1]: 6.82

SMILES: O=S(=O)(Nc1ccc(S(=O)(=O)C(F)(F)F)cc1Oc1ccc(F)c(F)c1)c1ccccc1
pIC50 [1]: 7.05

SMILES: O=S(=O)(Nc1ccc(S(=O)(=O)C(F)(F)F)cc1Oc1ccc(F)cc1)c1ccccc1
pIC50 [1]: 6.70

SMILES: NC(c1ccccc1)c1cc(S(=O)(=O)C(F)(F)F)ccc1NS(=O)(=O)c1ccccc1 (configuration not stated)
pIC50 [1]: < 6.00

SMILES: COc1cccc(Oc2cc(S(=O)(=O)C(F)(F)F)ccc2NS(=O)(=O)c2ccccc2)c1
pIC50 [1]: 6.34

SMILES: O=S(=O)(Nc1ccc(S(=O)(=O)C(F)(F)F)cc1Oc1cccc(Cl)c1)c1ccccc1
pIC50 [1]: < 6.00

SMILES: Cc1cccc(Oc2cc(S(=O)(=O)C(F)(F)F)ccc2NS(=O)(=O)c2ccccc2)c1
pIC50 [1]: 6.00

SMILES: c1ccc(CCCN2CCCCC2Cc2ccccc2)cc1 (configuration not stated)
pIC50 [1]: 4.11
pIC50 [2]: 4.05

SMILES: CCc1ccc(CCOc2ccc(CC3SC(=O)NC3=O)cc2)nc1 (configuration not stated) [PIOGLITAZONE]
Activity (Mus musculus [15]): 6%
Activity (Mus musculus [16]): -36%
